Results as given in ChEMBL document CHEMBL1250430, “Synthesis, semipreparative HPLC separation, biological evaluation, and 3D-QSAR of hydrazothiazole derivatives as human monoamine oxidase B inhibitors” (Bioorg Med Chem, 2010).
Several values for one entry are separate records, joined by “and”; a condition that tells them apart may be missing. Identical values can stand only once.

target: T1, Amine oxidase [flavin-containing] A (Homo sapiens, UniProt P21397); assay: not given; settings: bti-tn-5b1-4
T1 sequence (P21397 whole entry): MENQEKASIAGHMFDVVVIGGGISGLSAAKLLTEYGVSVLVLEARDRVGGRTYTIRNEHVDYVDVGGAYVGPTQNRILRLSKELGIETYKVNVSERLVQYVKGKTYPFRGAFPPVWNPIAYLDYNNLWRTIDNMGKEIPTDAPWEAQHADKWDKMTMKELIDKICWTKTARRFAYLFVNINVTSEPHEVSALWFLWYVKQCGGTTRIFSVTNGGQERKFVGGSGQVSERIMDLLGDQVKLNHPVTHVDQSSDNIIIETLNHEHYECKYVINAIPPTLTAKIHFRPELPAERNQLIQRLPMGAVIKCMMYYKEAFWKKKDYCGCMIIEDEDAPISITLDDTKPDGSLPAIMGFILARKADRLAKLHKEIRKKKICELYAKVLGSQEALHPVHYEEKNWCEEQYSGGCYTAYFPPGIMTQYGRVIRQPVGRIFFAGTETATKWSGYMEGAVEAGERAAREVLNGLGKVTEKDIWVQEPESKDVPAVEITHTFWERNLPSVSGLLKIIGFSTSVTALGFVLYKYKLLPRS

| IC50 [µM] | SMILES |
| --- | --- |
| 81.5 | CC1CCC(=NNc2nc(-c3ccc(Cl)cc3Cl)cs2)CC1 (centres undefined) |

target: T1, Amine oxidase [flavin-containing] A; assay: biochemical; settings: not given

| IC50 | SMILES |
| --- | --- |
| 0.344 µM | O=[N+]([O-])c1ccc(-c2csc(NN=C3CCCC3)n2)cc1 |
| 2.29 µM and 2.32 µM | Fc1ccc(-c2csc(NN=C3CCCC3)n2)c(F)c1 |
| 7.23 µM | Fc1ccc(-c2csc(NN=C3CCCCCC3)n2)c(F)c1 |
| 17.9 µM | O=[N+]([O-])c1ccc(-c2csc(NN=C3CCCCCC3)n2)cc1 |
| 59.3 µM | Clc1ccc(-c2csc(NN=C3CCCCCC3)n2)c(Cl)c1 |
| 0.644 µM | N#Cc1ccc(-c2csc(NN=C3CCCC3)n2)cc1 |
| 54.5 µM | Clc1ccc(-c2csc(NN=C3CCCC3)n2)c(Cl)c1 |
| 45.8 µM | Fc1ccc(-c2csc(NN=C3CCCCC3)n2)c(F)c1 |
